{"source": "paper PMC3433420", "about": "(PLoS ONE, 2012)", "key": {"GRB7 SH2 domain [1]": {"biological_target": "T1, GRB7 SH2 domain (Homo sapiens, UniProt Q14451)", "T1 sequence (Q14451 431-527 limits assumed)": "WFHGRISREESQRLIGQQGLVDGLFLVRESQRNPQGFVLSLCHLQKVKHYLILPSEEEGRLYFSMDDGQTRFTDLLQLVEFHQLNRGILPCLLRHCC", "parameters": "6X His; thioredoxin; made in house; host or cells: E. coli BL21(DE3)pLysS", "conditions": "previous protein microarray data, Figure S5; cited from earlier work"}, "SH2 and PTB domains": {"biological_target": "SH2 and PTB domains", "conditions": "original PM interactions, ref Jones et al. 2006 / Kaushansky et al. Chem and Biol 2008, cited from earlier work", "from_the_text": "Supplement pone.0044471.s022.xlsx, sheet \"Most recent PM interactions\" | column: Kd || Supplement pone.0044471.s022.xlsx, sheet \"All original PM interactions\" | column: Kd"}, "GRB7 SH2 domain [2]": {"biological_target": "T1, GRB7 SH2 domain", "assay": "FP saturation binding assay", "conditions": "peptides queried on both FP and PM platforms"}}, "note": "Where two headings read alike, the source gives them in different places."}
{"substance": "FDNLpYYWDQDPPEd [ErbB2 pY1221]", "values": [{"measurement": "interaction with GRB7 on the PM platform", "setting": "GRB7 SH2 domain [1]", "result": "only displayed interactions with GRB7 from the PM platform"}, {"measurement": "Kd", "setting": "SH2 and PTB domains; Protein ABL2", "result": 500, "unit": "nM"}, {"measurement": "Kd", "setting": "SH2 and PTB domains; Protein BLK", "result": 1200, "unit": "nM"}, {"measurement": "Kd", "setting": "SH2 and PTB domains; Protein BLNK", "result": 1560, "unit": "nM"}, {"measurement": "Kd", "setting": "SH2 and PTB domains; Protein BMX", "result": 2000, "unit": "nM"}, {"measurement": "Kd", "setting": "SH2 and PTB domains; Protein FGR", "result": 2000, "unit": "nM"}, {"measurement": "Kd", "setting": "SH2 and PTB domains; Protein GRB10", "result": 120, "unit": "nM"}, {"measurement": "Kd", "setting": "SH2 and PTB domains; Protein GRB14", "result": 1400, "unit": "nM"}, {"measurement": "Kd", "setting": "SH2 and PTB domains; Protein ITK", "result": 1520, "unit": "nM"}, {"measurement": "Kd", "setting": "SH2 and PTB domains; Protein LYN", "result": 930, "unit": "nM"}, {"measurement": "Kd", "setting": "SH2 and PTB domains; Protein PIK3R1-C", "result": 2000, "unit": "nM"}, {"measurement": "Kd", "setting": "SH2 and PTB domains; Protein PIK3R1-NC", "result": 1160, "unit": "nM"}, {"measurement": "Kd", "setting": "SH2 and PTB domains; Protein PIK3R2-N", "result": 950, "unit": "nM"}, {"measurement": "Kd", "setting": "SH2 and PTB domains; Protein PIK3R2-NC", "result": 2000, "unit": "nM"}, {"measurement": "Kd", "setting": "SH2 and PTB domains; Protein PIK3R3-C", "result": 1910, "unit": "nM"}, {"measurement": "Kd", "setting": "SH2 and PTB domains; Protein PIK3R3-N", "result": 2000, "unit": "nM"}, {"measurement": "Kd", "setting": "SH2 and PTB domains; Protein PIK3R3-NC", "result": 2000, "unit": "nM"}, {"measurement": "Kd", "setting": "SH2 and PTB domains; Protein PLCG1-C", "result": 2000, "unit": "nM"}, {"measurement": "Kd", "setting": "SH2 and PTB domains; Protein PLCG1-N", "result": 1930, "unit": "nM"}, {"measurement": "Kd", "setting": "SH2 and PTB domains; Protein PLCG1-NC", "result": 1960, "unit": "nM"}, {"measurement": "Kd", "setting": "SH2 and PTB domains; Protein PLCG2-N", "result": 2000, "unit": "nM"}, {"measurement": "Kd", "setting": "SH2 and PTB domains; Protein PLCG2-NC", "result": 2000, "unit": "nM"}, {"measurement": "Kd", "setting": "SH2 and PTB domains; Protein PTPN11-N", "result": 2000, "unit": "nM"}, {"measurement": "Kd", "setting": "SH2 and PTB domains; Protein RASA1-N", "result": 370, "unit": "nM"}, {"measurement": "Kd", "setting": "SH2 and PTB domains; Protein RASA1-NC", "result": 900, "unit": "nM"}, {"measurement": "Kd", "setting": "SH2 and PTB domains; Protein SH2D3A", "result": 1280, "unit": "nM"}, {"measurement": "Kd", "setting": "SH2 and PTB domains; Protein SH2D3C", "result": 160, "unit": "nM"}, {"measurement": "Kd", "setting": "SH2 and PTB domains; Protein SH3BP2", "result": 2000, "unit": "nM"}, {"measurement": "Kd", "setting": "SH2 and PTB domains; Protein SHB", "result": 210, "unit": "nM"}, {"measurement": "Kd", "setting": "SH2 and PTB domains; Protein SHC1-PTB", "result": 170, "unit": "nM"}, {"measurement": "Kd", "setting": "SH2 and PTB domains; Protein SHC2-PTB", "result": 430, "unit": "nM"}, {"measurement": "Kd", "setting": "SH2 and PTB domains; Protein SHD", "result": 2000, "unit": "nM"}, {"measurement": "Kd", "setting": "SH2 and PTB domains; Protein SHF", "result": 340, "unit": "nM"}, {"measurement": "Kd", "setting": "SH2 and PTB domains; Protein SLA2", "result": 1440, "unit": "nM"}, {"measurement": "Kd", "setting": "SH2 and PTB domains; Protein SLA", "result": 1070, "unit": "nM"}, {"measurement": "Kd", "setting": "SH2 and PTB domains; Protein SOCS1", "result": 1230, "unit": "nM"}, {"measurement": "Kd", "setting": "SH2 and PTB domains; Protein SRC", "result": 35, "unit": "nM"}, {"measurement": "Kd", "setting": "SH2 and PTB domains; Protein SUPT6H", "result": 1570, "unit": "nM"}, {"measurement": "Kd", "setting": "SH2 and PTB domains; Protein SYK-C", "result": 2000, "unit": "nM"}, {"measurement": "Kd", "setting": "SH2 and PTB domains; Protein SYK-N", "result": 260, "unit": "nM"}, {"measurement": "Kd", "setting": "SH2 and PTB domains; Protein SYK-NC", "result": 410, "unit": "nM"}, {"measurement": "Kd", "setting": "SH2 and PTB domains; Protein TEC", "result": 770, "unit": "nM"}, {"measurement": "Kd", "setting": "SH2 and PTB domains; Protein TXK", "result": 1230, "unit": "nM"}, {"measurement": "Kd", "setting": "SH2 and PTB domains; Protein VAV2", "result": 1750, "unit": "nM"}, {"measurement": "Kd", "setting": "SH2 and PTB domains; Protein VAV3", "result": 1650, "unit": "nM"}, {"measurement": "Kd", "setting": "SH2 and PTB domains; Protein YES1", "result": 45, "unit": "nM"}, {"measurement": "Kd", "setting": "SH2 and PTB domains; Protein ZAP70-NC", "result": 1440, "unit": "nM"}, {"measurement": "interaction with GRB7 on the FP platform", "setting": "GRB7 SH2 domain [2]", "result": "only displayed interactions with GRB7 from the PM platform"}]}
